Test results from US9695155B2, “Herbicidal substituted pyrimidinyloxy benzene compounds” (E. I. DU PONT DE NEMOURS AND COMPANY, priority 2013, dated 2017).

What was measured:
[1] = system: pigweed; assay: Test A postemergence; format: in vivo, Amaranthus retroflexus; settings: Amaranthus retroflexus, post-emergence, 0 to 100 scale where 0 is no effect and 100 is complete control, read-out: Plant response rating, Pigweed
Procedure, shortened: (§1)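 Visual injury scored 0–100 (100 = complete control) against untreated controls about 10 days after treatment in a greenhouse. Test chemicals, formulated with surfactant in non-phytotoxic solvent, were sprayed on soil preemergence or on 2-10 cm, one- to two-leaf plants postemergence.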

[2] = system: pigweed; assay: Test C postemergence; format: in vivo, Amaranthus retroflexus; settings: Amaranthus retroflexus, post-emergence
Procedure, shortened: (§2)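 Rated visually on 0–100 (100 = complete control) after 13–15 days under glass. Treatments went onto freshly seeded loam/sand soil or onto emerged plants at the 1- to 4-leaf stage, using a surfactant-containing solvent formulation.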

[3] = system: wheat; assay: Test A postemergence; format: in vivo, Triticum aestivum; settings: Triticum aestivum, post-emergence, 240 h, 0 to 100 scale where 0 is no effect and 100 is complete control, read-out: Plant response rating, Wheat
Procedure, shortened: as §1

[4] = system: corn; assay: Test A preemergence; format: in vivo, Zea mays; settings: Zea mays, pre-emergence, 240 h
Procedure, shortened: as §1

[5] = system: rice; assay: Test B flooded paddy test; format: in vivo, Oryza sativa; settings: Oryza sativa; Flood, 250 g ai/ha; 0 to 100 scale where 0 is no effect and 100 is complete control; read-out: Plant response rating, Rice
Procedure, shortened: (§3)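 Post-emergence paddy-water application at the 2-leaf stage, with 3 cm flood kept for the whole test. Response was judged visually relative to controls after 13 to 15 greenhouse days, 0 indicating no effect and 100 complete control.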

[6] = system: pigweed; assay: Test A preemergence; format: in vivo, Amaranthus retroflexus; settings: Amaranthus retroflexus, pre-emergence
Procedure, shortened: as §1

[7] = system: sedge, umbrella; assay: Test B flooded paddy test; format: in vivo, Cyperus difformis; settings: Cyperus difformis, Flood, 250 g ai/ha; 0 to 100 scale where 0 is no effect and 100 is complete control; read-out: Plant response rating, Sedge, Umbrella
Procedure, shortened: as §3

[8] = system: velvetleaf; assay: Test C postemergence; format: in vivo, Abutilon theophrasti; settings: Abutilon theophrasti, post-emergence
Procedure, shortened: as §2

[9] = system: galium; assay: Test C postemergence; format: in vivo, Galium aparine; settings: Galium, post-emergence
Procedure, shortened: as §2

[10] = system: wheat; assay: Test A preemergence; format: in vivo, Triticum aestivum
Procedure, shortened: as §1

[11] = system: Heteranthera limosa; assay: Test B flooded paddy test; format: in vivo; settings: Heteranthera limosa, Flood, 250 g ai/ha; 0 to 100 scale where 0 is no effect and 100 is complete control; read-out: Plant response rating, Ducksalad
Procedure, shortened: as §3

[12] = system: barnyardgrass; assay: Test A preemergence; format: in vivo, Echinochloa crus-galli; settings: Echinochloa crus-galli, pre-emergence, 240 h
Procedure, shortened: as §1

[13] = system: kochia; assay: Test C postemergence; format: in vivo, Kochia scoparia; settings: Bassia scoparia, post-emergence
Procedure, shortened: as §2

[14] = system: barnyardgrass; assay: Test A postemergence; format: in vivo, Echinochloa crus-galli; settings: Echinochloa crus-galli, post-emergence, 240 h
Procedure, shortened: as §1

[15] = system: corn; assay: Test A postemergence; format: in vivo, Zea mays; settings: Zea mays, post-emergence, 240 h
Procedure, shortened: as §1

[16] = system: giant foxtail; assay: Test A postemergence; format: in vivo, Setaria faberii; settings: Setaria faberi, post-emergence, 240 h, 0 to 100 scale where 0 is no effect and 100 is complete control, read-out: Plant response rating, Foxtail, Giant
Procedure, shortened: as §1

[17] = system: barnyardgrass; assay: Test C postemergence; format: in vivo, Echinochloa crus-galli; settings: Echinochloa crus-galli, post-emergence
Procedure, shortened: as §2

[18] = 125 g ai/ha, 0 to 100 scale where 0 is no effect and 100 is complete control
[19] = 125 g ai/ha, 0 to 100 scale where 0 is no effect and 100 is complete control, read-out: Plant response rating, Barnyardgrass

N#Cc1cccc(Oc2ncc(F)cn2)c1-n1cc(C(F)(F)F)cn1 [Compound 79, 3-[(5-fluoro-2-pyrimidinyl)oxy]-2-[4-(trifluoromethyl)-1H-pyrazol-1-yl]benzonitrile]
pest or weed control at 125 g/ha ([1]; 125 g ai/ha): 100% | pest or weed control at 500 g/ha ([1]; 500 g ai/ha): 100% | pest or weed control at 125 g/ha ([2]; 125 g ai/ha, postemergence, read-out: Plant response rating (0 to 100), Pigweed): 95% | pest or weed control at 250 g/ha ([2]; 250 g ai/ha, postemergence, read-out: Plant response rating (0 to 100), Pigweed): 98% | pest or weed control at 31 g/ha ([2]; Postemergence, 31 g ai/ha, scale 0 to 100 (0 no effect, 100 complete control), 13 to 15 days, read-out: Plant response rating, Pigweed): 75% | pest or weed control at 62 g/ha ([2]; Postemergence, 62 g ai/ha, scale 0 to 100 (0 no effect, 100 complete control), read-out: Plant response rating, Pigweed): 95% | plant injury at 125 g/ha ([3]; 125 g ai/ha): 80% | plant injury at 500 g/ha ([3]; 500 g ai/ha): 90% | Corn plant response rating (crop injury, 0 = no effect, 100 = complete kill) at 125 g/ha [4, 18]: 80% | plant injury at 500 g/ha ([4]; 500 g ai/ha, 0 to 100 scale, 0 no effect, 100 complete control, approx. 10 days, read-out: Corn plant response rating): 100% | plant injury at 250 g/ha [5]: 45% | pest or weed control at 125 g/ha ([6]; 125 g ai/ha, 0 to 100 scale where 0 is no effect and 100 is complete control, read-out: Plant response rating, Pigweed): 100% | pest or weed control at 500 g/ha ([6]; 240 h, 500 g ai/ha, 0 to 100 scale, 0 no effect, 100 complete control, approx. 10 days, read-out: Pigweed plant response rating): 100% | pest or weed control at 250 g/ha [7]: 95% | pest or weed control at 125 g/ha ([8]; 125 g ai/ha, postemergence, read-out: Plant response rating (0 to 100), Velvetleaf): 70% | pest or weed control at 250 g/ha ([8]; 250 g ai/ha, postemergence, read-out: Plant response rating (0 to 100), Velvetleaf): 90% | pest or weed control at 31 g/ha ([8]; Postemergence, 31 g ai/ha, scale 0 to 100 (0 no effect, 100 complete control), 13 to 15 days, read-out: Plant response rating, Velvetleaf): 55% | pest or weed control at 62 g/ha ([8]; Postemergence, 62 g ai/ha, scale 0 to 100 (0 no effect, 100 complete control), read-out: Plant response rating, Velvetleaf): 70% | pest or weed control at 125 g/ha ([9]; 125 g ai/ha, postemergence, read-out: Plant response rating (0 to 100), Galium): 80% | pest or weed control at 250 g/ha ([9]; 250 g ai/ha, postemergence, read-out: Plant response rating (0 to 100), Galium): 95% | pest or weed control at 31 g/ha ([9]; Postemergence, 31 g ai/ha, scale 0 to 100 (0 no effect, 100 complete control), 13 to 15 days, read-out: Plant response rating, Galium): 65% | pest or weed control at 62 g/ha ([9]; Postemergence, 62 g ai/ha, scale 0 to 100 (0 no effect, 100 complete control), read-out: Plant response rating, Galium): 75% | Plant response rating, Wheat [10, 18]: 70 | plant injury at 500 g/ha ([10]; Triticum aestivum, pre-emergence, 240 h, 500 g ai/ha, 0 to 100 scale, 0 no effect, 100 complete control, approx. 10 days, read-out: Wheat plant response rating): 100% | pest or weed control at 250 g/ha [11]: 95% | pest or weed control at 125 g/ha [12, 19]: 100% | pest or weed control at 500 g/ha ([12]; 500 g ai/ha, 0 to 100 scale, 0 no effect, 100 complete control, approx. 10 days, read-out: Barnyardgrass plant response rating): 100% | pest or weed control at 125 g/ha ([13]; 125 g ai/ha, postemergence, read-out: Plant response rating (0 to 100), Kochia): 95% | pest or weed control at 250 g/ha ([13]; 250 g ai/ha, postemergence, read-out: Plant response rating (0 to 100), Kochia): 95% | pest or weed control at 31 g/ha ([13]; Postemergence, 31 g ai/ha, scale 0 to 100 (0 no effect, 100 complete control), 13 to 15 days, read-out: Plant response rating, Kochia): 90% | pest or weed control at 62 g/ha ([13]; Postemergence, 62 g ai/ha, scale 0 to 100 (0 no effect, 100 complete control), read-out: Plant response rating, Kochia): 90% | pest or weed control at 125 g/ha [14, 19]: 100% | pest or weed control at 500 g/ha ([14]; 500 g ai/ha, 0 to 100 scale, 0 no effect, 100 complete control, read-out: Plant response rating Barnyardgrass): 100% | Corn plant response rating (crop injury, 0 = no effect, 100 = complete kill) at 125 g/ha [15, 18]: 80% | plant injury at 500 g/ha ([15]; 500 g ai/ha, 0 to 100 scale, 0 no effect, 100 complete control, read-out: Plant response rating Corn): 100% | pest or weed control at 125 g/ha ([16]; 125 g ai/ha): 100% | pest or weed control at 500 g/ha ([16]; 500 g ai/ha): 100% | pest or weed control at 125 g/ha ([17]; 125 g ai/ha, postemergence, read-out: Plant response rating (0 to 100), Barnyardgrass): 20% | pest or weed control at 250 g/ha ([17]; 250 g ai/ha, postemergence, read-out: Plant response rating (0 to 100), Barnyardgrass): 75% | pest or weed control at 31 g/ha ([17]; Postemergence, 31 g ai/ha, scale 0 to 100 (0 no effect, 100 complete control), 13 to 15 days, read-out: Plant response rating, Barnyardgrass): 5% | pest or weed control at 62 g/ha ([17]; Postemergence, 62 g ai/ha, scale 0 to 100 (0 no effect, 100 complete control), read-out: Plant response rating, Barnyardgrass): 5%
